From ChEMBL document CHEMBL5154901, “Development of Predictive Classification Models for Whole Cell Antimycobacterial Activity of Benzothiazinones” (J Med Chem, 2022)
In brackets after ≈: the same amount, converted by molar mass.

Tests used:
[1] = tested on: Mycolicibacterium vaccae; assay: Antimycobacterial activity against Mycobacterium vaccae (JMRC:STI:10670) assessed as reduction in bacterial growth incubated for 42 hrs by serial dilution method; format: functional
[2] = Cytotoxicity against human HeLa cells assessed as reduction in cell viability incubated for 72 hrs by methylene blue staining based colorimetric assay; format: toxicity
[3] = Mycolicibacterium vaccae, JMRC:STI:10670, read-out: MIC

Q: With `CN(c1ccc(O)cc1)c1nc(=O)c2cc(C(F)(F)F)cc([N+](=O)[O-])c2s1` as the compound, how does the MIC [1, 3] read?
A: 126 µM (≈ 50.1 µg/mL)

Q: Which CC50 at 72 h [2] does the source give for `CCCCCCN(C)c1nc(=O)c2cc(C(F)(F)F)cc([N+](=O)[O-])c2s1` here?
A: 75.5 µM

Q: What about the MIC [1, 3] of the same compound?
A: 0.0321 µM (≈ 0.0125 µg/mL)

Q: With `O=c1nc(N2Cc3[nH]nc(-c4ccccc4)c3C2)sc2c([N+](=O)[O-])cc(C(F)(F)F)cc12` as the compound, how does the MIC [1, 3] read?
A: 13.6 µM (≈ 6.25 µg/mL)

Q: For `O=c1nc(N2CCc3nc(-c4ccccc4)ncc3C2)sc2c([N+](=O)[O-])cc(C(F)(F)F)cc12`, which MIC [1] is on record?
A: 26 10^3nM

Q: With `O=c1nc(N2CCN(CCCC3(c4ccc(F)cc4)OCCO3)CC2)sc2c([N+](=O)[O-])cc(C(F)(F)F)cc12` as the compound, how does the MIC [1, 3] read?
A: 0.141 µM (≈ 0.0802 µg/mL)

Q: For `CN1CCN(C(=O)C(F)(F)C(F)(F)C(F)(F)C(=O)N2CCN(c3nc(=O)c4cc(C(F)(F)F)cc([N+](=O)[O-])c4s3)CC2)CC1`, which CC50 at 72 h [2] is on record?
A: > 75.2 µM

Q: And the MIC [1, 3]?
A: 0.0376 µM (≈ 0.025 µg/mL)

Q: With `CN1CCN(C(=O)C(F)(F)C(F)(F)C(=O)N2CCN(c3nc(=O)c4cc(C(F)(F)F)cc([N+](=O)[O-])c4s3)CC2)CC1` as the compound, how does the CC50 at 72 h [2] read?
A: > 81.4 µM

Q: And the MIC [1, 3]?
A: 0.0407 µM (≈ 0.025 µg/mL)

Q: Which CC50 at 72 h [2] does the source give for `CN(CCCO)c1nc(=O)c2cc(C(F)(F)F)cc([N+](=O)[O-])c2s1` here?
A: 103 µM

Q: What about the MIC [1, 3] of the same compound?
A: 0.0716 µM (≈ 0.026 µg/mL)

Q: Which MIC [1, 3] does the source give for `O=c1nc(N2CCn3nc(-c4ccccc4)nc3C2)sc2c([N+](=O)[O-])cc(C(F)(F)F)cc12` here?
A: 105 µM (≈ 49.8 µg/mL)

Q: With `O=c1nc(N2CCC(c3ccc(CO)cc3)CC2)sc2c([N+](=O)[O-])cc(C(F)(F)F)cc12` as the compound, how does the CC50 at 72 h [2] read?
A: 19.6 µM

Q: What about the MIC [1, 3] of the same compound?
A: 0.0537 µM (≈ 0.025 µg/mL)

Q: With `O=C(O)c1ccccc1N1CCN(c2nc(=O)c3cc(C(F)(F)F)cc([N+](=O)[O-])c3s2)CC1` as the compound, how does the MIC [1, 3] read?
A: 6.49 µM (≈ 3.12 µg/mL)

Q: For `O=c1nc(N2CC[C@@](O)(c3ccc(F)cc3)[C@H](O)C2)sc2c([N+](=O)[O-])cc(C(F)(F)F)cc12`, which CC50 at 72 h [2] is on record?
A: 66.1 µM

Q: What about the MIC [1, 3] of the same compound?
A: 0.0515 µM (≈ 0.025 µg/mL)

Q: Which results are given for `O=c1nc(N2CCC(CCO)CC2)sc2c([N+](=O)[O-])cc(C(F)(F)F)cc12`?
A: CC50 at 72 h [2]: 91.5 µM; MIC [1, 3]: 0.992 µM (≈ 0.4 µg/mL)

Q: Which CC50 at 72 h [2] does the source give for `O=c1nc(N2CC[C@@](O)(c3ccccc3)[C@H](O)C2)sc2c([N+](=O)[O-])cc(C(F)(F)F)cc12` here?
A: 68.5 µM

Q: And the MIC [1, 3]?
A: 0.0535 µM (≈ 0.025 µg/mL)

Q: For `O=C(CN1CCN(c2nc(=O)c3cc(C(F)(F)F)cc([N+](=O)[O-])c3s2)CC1)Nc1ccccc1`, which CC50 at 72 h [2] is on record?
A: > 101 µM

Q: And the MIC [1, 3]?
A: 0.0253 µM (≈ 0.0125 µg/mL)

Q: With `Cc1nnc2n1CCN(c1nc(=O)c3cc(C(F)(F)F)cc([N+](=O)[O-])c3s1)C2` as the compound, how does the MIC [1, 3] read?
A: 3.78 µM (≈ 1.56 µg/mL)

Q: With `O=C(c1cccc2[nH]ncc12)N1CCN(c2nc(=O)c3cc(C(F)(F)F)cc([N+](=O)[O-])c3s2)CC1` as the compound, how does the MIC [1, 3] read?
A: 1.55 µM (≈ 0.782 µg/mL)

Q: With `O=C(c1ccc2[nH]ncc2c1)N1CCN(c2nc(=O)c3cc(C(F)(F)F)cc([N+](=O)[O-])c3s2)CC1` as the compound, how does the MIC [1, 3] read?
A: 6.19 µM (≈ 3.12 µg/mL)

Q: With `O=C(c1ccc2cn[nH]c2c1)N1CCN(c2nc(=O)c3cc(C(F)(F)F)cc([N+](=O)[O-])c3s2)CC1` as the compound, how does the MIC [1, 3] read?
A: 3.09 µM (≈ 1.56 µg/mL)

Q: Which MIC [1, 3] does the source give for `O=c1nc(Nc2ccccc2)sc2c([N+](=O)[O-])cc(C(F)(F)F)cc12` here?
A: 68.1 µM (≈ 25 µg/mL)

Q: With `O=c1nc(Nc2ccc(CO)cc2)sc2c([N+](=O)[O-])cc(C(F)(F)F)cc12` as the compound, how does the MIC [1] read?
A: 16 10^3nM

Q: With `O=c1nc(N2Cc3ccccc3[C@H](CO)C2)sc2c([N+](=O)[O-])cc(C(F)(F)F)cc12` as the compound, how does the CC50 at 72 h [2] read?
A: 86.4 µM

Q: What about the MIC [1, 3] of the same compound?
A: 0.0286 µM (≈ 0.0125 µg/mL)

Q: Which MIC [1] does the source give for `Cn1c(-c2ccccc2)nc2c1CN(c1nc(=O)c3cc(C(F)(F)F)cc([N+](=O)[O-])c3s1)C2` here?
A: 13 10^3nM

Q: For `O=c1nc(N2CC[C@@H](c3ccc(F)cc3)[C@H](O)C2)sc2c([N+](=O)[O-])cc(C(F)(F)F)cc12`, which CC50 at 72 h [2] is on record?
A: 68.4 µM

Q: What about the MIC [1, 3] of the same compound?
A: 0.0132 µM (≈ 0.0062 µg/mL)

Q: With `O=c1nc(N2CCN(Cc3ccncc3)CC2)sc2c([N+](=O)[O-])cc(C(F)(F)F)cc12` as the compound, how does the CC50 at 72 h [2] read?
A: > 111 µM

Q: And the MIC [1, 3]?
A: 0.0687 µM (≈ 0.031 µg/mL)

Q: For `O=c1nc(N2CCc3[nH]nc(-c4ccccc4)c3C2)sc2c([N+](=O)[O-])cc(C(F)(F)F)cc12`, which MIC [1] is on record?
A: 6.6 10^3nM

Q: For `O=C(CN1CCN(c2nc(=O)c3cc(C(F)(F)F)cc([N+](=O)[O-])c3s2)CC1)NCc1ccccc1`, which CC50 at 72 h [2] is on record?
A: 57.1 µM

Q: What about the MIC [1, 3] of the same compound?
A: 0.0985 µM (≈ 0.05 µg/mL)

Q: For `CC(C)n1c2c([n+](C)c1-c1ccccc1)CN(c1nc(=O)c3cc(C(F)(F)F)cc([N+](=O)[O-])c3s1)C2`, which MIC [1, 3] is on record?
A: 0.0477 µM

Q: Which results are given for `O=c1nc(N2CCN(CC(F)(F)c3ccc(F)cc3)CC2)sc2c([N+](=O)[O-])cc(C(F)(F)F)cc12`?
A: CC50 at 72 h [2]: 87.2 µM; MIC [1, 3]: 0.0154 µM (≈ 0.00798 µg/mL)

Q: With `CCn1c(-c2ccccc2)nc2c1CN(c1nc(=O)c3cc(C(F)(F)F)cc([N+](=O)[O-])c3s1)C2` as the compound, how does the MIC [1, 3] read?
A: 3.2 µM (≈ 1.56 µg/mL)

Q: For `CC(=O)c1ccc(N2CCN(c3nc(=O)c4cc(C(F)(F)F)cc([N+](=O)[O-])c4s3)CC2)cc1`, which CC50 at 72 h [2] is on record?
A: > 105 µM

Q: And the MIC [1, 3]?
A: 0.13 µM (≈ 0.0622 µg/mL)

Q: For `O=C(O)[C@@H]1CN(c2nc(=O)c3cc(C(F)(F)F)cc([N+](=O)[O-])c3s2)Cc2ccccc21`, which MIC [1] is on record?
A: 3.5 10^3nM

Q: Which MIC [1, 3] does the source give for `O=c1nc(N2CCNCC2)sc2c([N+](=O)[O-])cc(C(F)(F)F)cc12` here?
A: 17.3 µM (≈ 6.23 µg/mL)

Q: Which results are given for `O=c1nc(N2CCN(CC(F)(F)c3ccc(OC(F)(F)F)cc3)CC2)sc2c([N+](=O)[O-])cc(C(F)(F)F)cc12`?
A: CC50 at 72 h [2]: > 86 µM; MIC [1, 3]: 0.0027 µM (≈ 0.00158 µg/mL)

Q: With `O=c1nc(Nc2ccc3[nH]ncc3c2)sc2c([N+](=O)[O-])cc(C(F)(F)F)cc12` as the compound, how does the MIC [1, 3] read?
A: 61.4 µM (≈ 25 µg/mL)

Q: With `O=c1nc(N2CCN(S(=O)(=O)c3ccc(OC(F)(F)F)cc3)CC2)sc2c([N+](=O)[O-])cc(C(F)(F)F)cc12` as the compound, how does the CC50 at 72 h [2] read?
A: 31.5 µM

Q: What about the MIC [1, 3] of the same compound?
A: 0.0274 µM (≈ 0.016 µg/mL)

Q: Which MIC [1, 3] does the source give for `CC(C)n1c(-c2ccccc2)nc2c1CN(c1nc(=O)c3cc(C(F)(F)F)cc([N+](=O)[O-])c3s1)C2` here?
A: 0.798 µM (≈ 0.4 µg/mL)
